Measurements reported in patent US8962036B2, “Disintegrable formulations of lanthanum carbonate” (Mylan Pharmaceuticals Inc., priority 2009, dated 2015).

What was measured:
[1] = Disintegration of uncoated, compressed tablets in deionized water (USP <701>); format: physicochemical; conditions: whole, intact tablet in deionized water; single tablet per example
Experimental: The uncoated, compressed tablets were assessed for disintegration. The disintegration time was measured using the procedure and apparatus as described by physical test <701>, Disintegration, from The United States Pharmacopeia, Volume 29. The disintegration of a single tablet from each example was measured.

[2] = Phosphate Binding Assay (excess phosphate, pH 3.0, 37° C., ion chromatography); conditions: 2.5 mg La2(CO3)3/mL phosphate solution, 60 minutes; for Binding Capacity, Ground Tablet: whole tablet coarsely ground before analysis; for Binding Capacity, Whole Tablet: whole tablet without further modification
Description: Table II describes the phosphate binding ability of the prepared Examples in either whole or ground tablet form. The ground tablets simulate a chewable tablet formulation after chewing has occurred. Phosphate binding ability is a term used to predict the amount of phosphate that can be bound by a sequestrant under conditions which employ a large excess of phosphate, such as those found in the stomach. Mazzeo, J. R.; et. al. Journal of Pharmaceutical and Biomedical Analysis 1999, vol. 19, pps. 911-915. This assay, which utilizes a large excess of phosphate, is therefore a better functional model of biological conditions than the assay described in U.S. Pat. No. 5,968,976 which utilizes only two molar equivalents of phosphate ion per mole of lanthanum carbonate.
The uncoated, compressed tablets obtained from Examples 1-17 were assessed for phosphate binding ability. Whole tablets, prepared as described above, as well as coarsely ground tablets were both examined.
i. Preparation of stock phosphate solution:
21.4 g N,N-bis(hydroxyethyl)-2-aminoethanesulfonic acid, 4.7 g NaCl, and 2.7 g KH2PO4 (ultra high purity) were added to a 1000 mL volumetric flask and dissolved in 950 mL DI H2O. The pH was then adjusted to 3.0 (±0.05) with HCl, and the solution was diluted to volume with DI H2O and mixed.
The lanthanum carbonate complex was added to the stock phosphate solution so that the final concentration was 2.5 mg La2(CO3)3/mL phosphate solution. The mixture was heated at 37° C. for 60 minutes with constant swirling. It was then filtered through a 0.2 μm nylon filter.
The sample was then diluted to allow injection into the ion chromatograph. Here, a dilution factor of 100 was used: a 1.0 mL aliquot was removed and diluted volumetrically to 100 mL with DI water.
iii. Phosphate Measurement
The amount of unbound phosphate was determined by ion chromatography on a Dionex ICS-1500 ion chromatograph equipped with a conductivity cell (35° C.) and a Dionex MRS 300 4 mm auto suppressor. Material was eluted through a Dionex AG11-HC guard column (4×50 mm) and a Dionex AS11-HC column (4×250 mm) at 1.0 mL/min using 25 mM NaOH in DI H2O as the mobile phase. The sample response was then recorded by a computerized chromatography data system.
iv. Construction of Phosphate Calibration Curve
The linearity of the response was verified as follows. A series of standards over a wide range of free phosphate concentration (approximately 0.04, 0.06, 0.10, 0.15, 0.20, and 0.25 mM) were prepared and their ion chromatographic responses were determined. A plot of free phosphate concentration (mM) vs. response was then constructed. The slope and y-intercept of the resulting linear regression plot were then determined.
The phosphate binding capacity was calculated from the following equations.

Row | SMILES | Disintegration Time [1] [h] | Binding Capacity, Ground Tablet [2] | Binding Capacity, Whole Tablet [2]
1 | O.O.O.O.O.O.O.O.O.O.O.O.O.O.O=C([O-])[O-].O=C([O-])[O-].O=C([O-])[O-].[La+3].[La+3] [Example 16, La2(CO3)3•14H20] | >7 | 3.6 mmol PO4-2/g La2(CO3)3 | 0.8 mmol PO4-2/g La2(CO3)3
2 | O.O.O.O.O.O.O.O.O=C([O-])[O-].O=C([O-])[O-].O=C([O-])[O-].[La+3].[La+3] [Example 15, La2(CO3)3•8H20] | >7 | 3.0 mmol PO4-2/g La2(CO3)3 | 0.6 mmol PO4-2/g La2(CO3)3
3 | O=C([O-])[O-].O=C([O-])[O-].O=C([O-])[O-].[La+3].[La+3] [Example 14, La2(CO3)3•5H20] | 5 | 3.0 mmol PO4-2/g La2(CO3)3 | 0.7 mmol PO4-2/g La2(CO3)3
